Results from ChEMBL document CHEMBL4043204, “meso-Dihydroguaiaretic acid derivatives with antibacterial and antimycobacterial activity” (Bioorg Med Chem, 2017).
Converted amounts (≈) assume the structure as drawn. The source made the active and inactive calls. The calls are words filed in the database; no cut-off is given here.

Legend:
[1] = test system: Bacillus subtilis; experiment: Antibacterial activity against Bacillus subtilis; assay type: functional
[2] = test system: Jonesia denitrificans; experiment: Antibacterial activity against Listeria denitrificans; assay type: functional
[3] = test system: Salmonella enterica; experiment: Antibacterial activity against Salmonella choleraesuis; assay type: functional
[4] = test system: Acinetobacter baumannii; experiment: Antibacterial activity against carbapenem-resistant Acinetobacter baumannii (12-666) assessed as inhibition of microbial growth up to 50 ug/ml incubated for 24 hrs by microdilution assay; assay type: functional
[5] = test system: Escherichia coli; experiment: Antibacterial activity against extended-spectrum beta-lactamase-positive Escherichia coli (14-2081) assessed as inhibition of microbial growth up to 50 ug/ml incubated for 24 hrs by microdilution assay; assay type: functional
[6] = test system: Escherichia coli; experiment: Antibacterial activity against oxacillin-resistant Escherichia coli OXA-48 assessed as inhibition of microbial growth up to 50 ug/ml incubated for 24 hrs by microdilution assay; assay type: functional
[7] = test system: Pseudomonas aeruginosa; experiment: Antibacterial activity against carbapenem-resistant Pseudomonas aeruginosa (13-1391) assessed as inhibition of microbial growth up to 50 ug/ml incubated for 48 hrs by microdilution assay; assay type: functional
[8] = test system: Klebsiella pneumoniae; experiment: Antibacterial activity against NDM-1 positive Klebsiella pneumoniae (14-3335) assessed as inhibition of microbial growth up to 50 ug/ml incubated for 24 hrs by microdilution assay; assay type: functional
[9] = test system: Klebsiella pneumoniae; experiment: Antibacterial activity against extended-spectrum beta-lactamase-positive Klebsiella pneumoniae (14-2081) assessed as inhibition of microbial growth up to 50 ug/ml incubated for 24 hrs by microdilution assay; assay type: functional
[10] = test system: Providencia rettgeri; experiment: Antibacterial activity against NDM-1 positive Providencia rettgeri assessed as inhibition of microbial growth up to 50 ug/ml incubated for 24 hrs by microdilution assay; assay type: functional
[11] = test system: Stenotrophomonas maltophilia; experiment: Antibacterial activity against trimethoprim-sulfamethoxazole-resistant Stenotrophomonas maltophilia assessed as inhibition of microbial growth up to 50 ug/ml incubated for 24 hrs by microdilution assay; assay type: functional
[12] = test system: Enterococcus faecium; experiment: Antibacterial activity against vancomycin-resistant Enterococcus faecium (10-984) assessed as inhibition of microbial growth incubated for 24 hrs by microdilution assay; assay type: functional
[13] = test system: Staphylococcus aureus; experiment: Antibacterial activity against methicillin-resistant Staphylococcus aureus (14-2095) assessed as inhibition of microbial growth incubated for 24 hrs by microdilution assay; assay type: functional
[14] = test system: Vero; experiment: Cytotoxicity against African green monkey Vero cells assessed as reduction in cell viability incubated for 24 hrs by trypan blue staining based assay; conditions: Chlorocebus sabaeus
[15] = test system: Staphylococcus epidermidis; experiment: Antibacterial activity against linezolid-resistant Staphylococcus epidermidis (14-583) assessed as inhibition of microbial growth incubated for 24 hrs by microdilution assay; assay type: functional
[16] = test system: Staphylococcus haemolyticus; experiment: Antibacterial activity against linezolid-resistant Staphylococcus haemolyticus 2975 assessed as inhibition of microbial growth incubated for 24 hrs by microdilution assay; assay type: functional; conditions: Staphylococcus haemolyticus, 2975, 24 h
[17] = Selectivity index, ratio of IC50 for cytotoxicity against African green monkey Vero cells to MIC for antibacterial activity against methicillin-resistant Staphylococcus aureus (14-2095)
[18] = test system: Mycobacterium tuberculosis; experiment: Antimycobacterial activity against Mycobacterium tuberculosis H37Rv ATCC 27294 assessed as inhibition of mycobacterial growth incubated for 2 weeks by MABA method; assay type: functional; conditions: for MIC: Mycobacterium tuberculosis, H37Rv ATCC 27294, 336 h
[19] = Selectivity index, ratio of IC50 for cytotoxicity against African green monkey Vero cells to MIC for Mycobacterium tuberculosis H37Rv ATCC 27294; assay type: toxicity, cell-based; conditions: read-out: Selectivity Index
[20] = test system: Staphylococcus aureus; experiment: Antibacterial activity against methicillin-resistant Staphylococcus aureus; assay type: functional
[21] = test system: Staphylococcus aureus; experiment: Antibacterial activity against Staphylococcus aureus; assay type: functional

Row | Compound | MIC [1] | MIC [2] | Activity [4] | Activity [5] | Activity [6] | Activity [7] | Activity [8] | Activity [9] | Activity [10] | Activity [11] | MIC [12] | MIC [13] | IC50 [14] | MIC [15] | MIC [16] | Selectivity Index [17] | MIC [18] | selectivity ratio [19] | -logMIC [18] | also measured
1 | COc1cc(C[C@H](C)[C@@H](C)Cc2ccc(O)c(OC)c2)ccc1O | 1600 µM (≈ 529 µg/mL) | 400 µM (≈ 132 µg/mL) |  |  |  |  |  |  |  |  |  |  |  |  |  |  |  |  |  | MIC [3]: 3100 µM (≈ 1020 µg/mL)
2 | COc1cc(C[C@@H](C)[C@@H](C)Cc2ccc(OCCN3CCOCC3)c(OC)c2)ccc1OCCN1CCOCC1 |  |  | inactive | inactive | inactive | inactive | inactive | inactive | inactive | inactive | > 50 µg/mL | 50 µg/mL | 71.6 µg/mL (≈ 129 µM) | > 50 µg/mL | > 50 µg/mL | 1.43 | 25 µg/mL (≈ 44.9 µM) | 2.87 |  | 
3 | COc1cc(C[C@@H](C)[C@@H](C)Cc2ccc(OCCN3CCCCC3)c(OC)c2)ccc1OCCN1CCCCC1 |  |  | inactive | inactive | inactive | inactive | inactive | inactive | inactive | inactive | 50 µg/mL | 50 µg/mL | 73.2 µg/mL (≈ 132 µM) | > 50 µg/mL | 50 µg/mL | 1.46 | 3.12 µg/mL (≈ 5.65 µM) | 23.4 |  | 
4 | COc1cc(C[C@@H](C)[C@@H](C)Cc2ccc(OCCN3CCCCC3)c(OC)c2)ccc1O (racemic) |  |  | inactive | inactive | inactive | inactive | inactive | inactive | inactive | inactive | 50 µg/mL | 50 µg/mL | 62.6 µg/mL (≈ 142 µM) | 50 µg/mL | 50 µg/mL | 1.25 | 12.5 µg/mL (≈ 28.3 µM) | 5.01 |  | 
5 | COc1cc(C[C@@H](C)[C@@H](C)Cc2ccc(OC(C)=O)c(OC)c2)ccc1O (racemic) |  |  | inactive | inactive | inactive | inactive | inactive | inactive | inactive | inactive | > 50 µg/mL | 25 µg/mL | 112 µg/mL (≈ 300 µM) | > 50 µg/mL | > 50 µg/mL | 4.46 | 50 µg/mL (≈ 134 µM) | 2.23 | 4.07 | 
6 | COc1cc(C[C@@H](C)[C@@H](C)Cc2ccc(OC(=O)c3cnccn3)c(OC)c2)ccc1O (racemic) |  |  | inactive | inactive | inactive | inactive | inactive | inactive | inactive | inactive | > 50 µg/mL | 50 µg/mL | 43.3 µg/mL (≈ 99.3 µM) | > 50 µg/mL | > 50 µg/mL | 0.87 | 50 µg/mL (≈ 115 µM) | 0.86 | 4.07 | 
7 | COc1cc(C[C@@H](C)[C@@H](C)Cc2ccc(OC(=O)c3ccccn3)c(OC)c2)ccc1O (racemic) |  |  | inactive | inactive | inactive | inactive | inactive | inactive | inactive | inactive | > 50 µg/mL | 25 µg/mL | 65 µg/mL (≈ 149 µM) | > 50 µg/mL | > 50 µg/mL | 2.6 | 50 µg/mL (≈ 115 µM) | 1.3 | 3.87 | 
8 | COc1cc(C[C@@H](C)[C@@H](C)Cc2ccc(OC)c(OC)c2)ccc1O (racemic) |  |  | inactive | inactive | inactive | inactive | inactive | inactive | inactive | inactive | > 50 µg/mL | 25 µg/mL | 47.8 µg/mL (≈ 139 µM) | > 50 µg/mL | > 50 µg/mL | 1.91 | 50 µg/mL (≈ 145 µM) | 0.96 | 3.94 | 
9 | COc1cc(C[C@@H](C)[C@H](C)Cc2ccc(O)c(OC)c2)ccc1O [(-)-DIHYDROGUAIARETICACID] | 1600 µM (≈ 529 µg/mL) | 400 µM (≈ 132 µg/mL) |  |  |  |  |  |  |  |  |  |  |  |  |  |  |  |  |  | 
10 | COc1cc(C[C@@H](C)[C@@H](C)Cc2ccc(O)c(OC)c2)ccc1O [MESODIHYDROGUAIARETIC ACID] | 1600 µM (≈ 529 µg/mL) | 1600 µM (≈ 529 µg/mL) |  |  |  |  |  |  |  |  |  |  |  |  |  |  | 50 µg/mL (≈ 151 µM) |  |  | MIC [20]: 50 µg/mL (≈ 151 µM); MIC [21]: 1600 µM (≈ 529 µg/mL)
